Data from US20240124389A1, “COMPOUND OR SALT THEREOF, LIPID PARTICLES, AND PHARMACEUTICAL COMPOSITION” (FUJIFILM Corporation, priority 2021, published 2024).

How the values were obtained:
EPO mRNA = assay: mRNA encapsulation rate of EPO mRNA-encapsulating lipid particles; type: physicochemical
Description: (§1) The compounds described in Table 1, the neutral lipid, cholesterol (product name: Cholesterol HP; NIPPON FINE CHEMICAL CO., LTD.), and 1,2-dimyristoyl-rac-glycero-3-(methylpolyoxyethylene 2000) (hereinafter, called DMG-PEG2000) (product name: SUNBRIGHT® GM-020; NOF corporation) were dissolved in ethanol at a molar ratio in Table 1 such that the total lipid concentration became 20 mmol/L, thereby obtaining an oil phase.
(§2) As the neutral lipid, 1,2-distearoyl-sn-glycero-3-phosphocholine (product name: COATSOME® MC-8080; NOF corporation) (hereinafter, DSPC), or L-α-dioleoyl phosphatidylethanolamine (Hereinafter, DOPE) (product name: COATSOME® ME-8181; NOF corporation), or 1,2-dioleoyl-sn-glycero-3-phosphocholine (hereinafter, DOPC) (product name: COATSOME® MC-8181; NOF corporation) was used.
(§3) EPO mRNA (product name: CleanCap EPO mRNA (5moU); TriLink) was diluted with 50 mmol/L citrate buffer having a pH 4 such that the weight ratio of total lipid concentration to mRNA concentration is about 16:1 to 64:1, thereby obtaining a water phase. Then, the water phase and the oil phase were mixed together using NanoAssemblr (Precision NanoSystems) such that the volume ratio of water phase:oil phase was 3:1, and the mixed solution was 1.5-fold diluted with phosphate buffered saline (PBS), thereby obtaining a dispersion liquid of mRNA lipid particles. The dispersion liquid was dialyzed with a 10% aqueous sucrose solution using a dialysis cassette (Slide-A-Lyzer G2, MWCO: 10 kD, Thermo Fisher Scientific) to remove ethanol, thereby obtaining EPO mRNA-encapsulating lipid particles.
15 to 30 μL of a 3 mol/L aqueous sodium acetate solution and 4.5 to 9 μL of glycogen were added to 30 to 60 μL of the lipid particles retaining mRNA, and 0.75 to 1.5 mL of ethanol was added thereto, so that only the nucleic acids were precipitated while the lipid was dissolved. Then, the supernatant was removed by centrifugation. The precipitates were air-dried for 15 minutes or longer, then water was added thereto to redissolve the precipitates, and the concentration thereof was measured using Nanodrop NF1000 (Thermo Fisher Scientific), thereby quantifying the total mRNA concentration.
The mRNA concentration was quantified using a Quant-iT RiboGreen RNA Assay Kit (Thermo Fisher Scientific) according to the protocol. First, a 20×TE buffer included in the above-described kit was diluted with water, thereby obtaining a 1×TE buffer. TE represents Tris/EDTA (ethylenediaminetetraacetic acid). In order to quantify only mRNA in the outer water phase, the dispersion liquid of lipid particles retaining mRNA was 10,000-fold diluted with the 1×TE buffer. 100 μL of the 10,000-fold diluted dispersion liquid of lipid particles was put into a 96-well plate, then 100 μL of a RiboGreen reagent (reagent included in the Quanti-iT Ribogreen RNA Assay Kit described above) 2,000-fold diluted with the 1×TE buffer was added to a sample, and fluorescence (excitation wavelength: 485 nm, fluorescence wavelength: 535 nm) was measured using a plate reader Infinite F200 (TECAN), thereby quantifying the mRNA concentration in the outer water phase.
By using the quantification results of the total mRNA concentration and the mRNA concentration in the outer water phase that were obtained through the above steps, the mRNA encapsulation rate of the mRNA lipid particles was calculated according to the following Equation.
mRNA encapsulation rate (%)=(total mRNA concentration-mRNA concentration in outer water phase)/total mRNA concentration×100

human EPO = assay: Measurement of EPO enzyme activity (EPO protein in blood plasma of mice after intravenous administration of EPO mRNA lipid particles); type: in vivo; conditions: C57BL/6J mice, tail-vein i.v., mRNA 0.1 mg/kg, plasma 20 to 24 hours
Description: as §1, §2, §3
The dispersion liquid of mRNA lipid particles prepared in above-described <Preparation of EPO mRNA-encapsulating lipid particles> was tail-vein intravenously administered to C57BL/6J mice at a mRNA dosage of 0.1 mg/kg. 20 to 24 hours after the administration, blood was collected from the caudal vena cava, thereby obtaining blood plasma. The human EPO enzyme activity was quantified by using the obtained blood plasma and ab119522 Erythropoietin (EPO) Human Elisa Kit (Abcam.plc). The quantitative value is described as a relative amount of EPO protein in a case where Comparative Example 1 is 1.

[1] = Particle size of EPO mRNA-encapsulating lipid particles; type: physicochemical
Description: as §1, §2, §3
The particle size of the mRNA-encapsulating lipid particles was measured by 10-fold diluting the dispersion liquid of lipid particle with phosphate buffered saline (PBS) using Zeta-potential & Particle size Analyzer ELS-Z2 (Otsuka Electronics Co., Ltd.).

[2] = aminolipid 50 / DOPE 10 / cholesterol 38.5 / DMG-PEG2000 1.5 mol %, lipid/nucleic acid 64 wt/wt
[3] = aminolipid 50 / DSPC 10 / cholesterol 38.5 / DMG-PEG2000 1.5 mol %, lipid/nucleic acid 20 wt/wt
[4] = aminolipid 45 / DOPE 10 / cholesterol 43.5 / DMG-PEG2000 1.5 mol %, lipid/nucleic acid 64 wt/wt

SMILES | Nucleic acid encapsulation rate (EPO mRNA; [2]) [%] | Relative amount of EPO protein (with respect to Comparative Example 1) (human EPO; [2]) | Particle size [1, 2] [nm] | further results
CCCCCCC(CCCC(=O)OCC(CCCCC)CCCCC)OC(=O)OCCN(CCOC(=O)OC(CCCCCC)CCCC(=O)OCC(CCCCC)CCCCC)CCN(CC)CC (stereo not drawn) [Example 10, bis(2-pentylheptyl) 11-(2-(diethylamino)ethyl)-5,17-dihexyl-7,15-dioxo-6,8,14,16-tetraoxa-11-azahenicosanedioate] | 100.0 | 2.39 | 88.0 | 
CCCCCCC(CCCC(=O)OCCC12CC3CC(CC(C3)C1)C2)OC(=O)OCCN(CCOC(=O)OC(CCCCCC)CCCC(=O)OCCC12CC3CC(CC(C3)C1)C2)CCN(CC)CC (stereo not drawn) [Example 27, Bis (2-(((3r,5r,7r)-adamantan-1-yl)ethyl)11-(2-(diethylamino)ethyl)-5,17-dihexyl-7,15-dioxo-6,8,1 4,16-tetraoxa-11-azahenicosanedioate] | 99.8 | 3.60 | 101.5 | 
CCCCC/C=C\C/C=C\CCCCCCCCC(CCCCCCCC/C=C\C/C=C\CCCCC)OC(=O)CCCN(C)C [Comparative Example 1, reference compound] |  |  |  | Nucleic acid encapsulation rate (EPO mRNA; [3]): 93.4%; Relative amount of EPO protein (with respect to Comparative Example 1) (human EPO; [3]): 1; Particle size [1, 3]: 89.0 nm
CCCCCCCC(CCCC(=O)OCC(CCCCC)CCCCC)OC(=O)OCCN(CCOC(=O)OC(CCCCCCC)CCCC(=O)OCC(CCCCC)CCCCC)CCN(CC)CC (stereo not drawn) [Example 24, Bis(2-pentylheptyl) 11-(2-(diethylamino)ethyl)-5,17-diheptyl-7,15-dioxo-6,8,14,16-tetraoxa-11-azahenicosanedioate] | 97.9 | 1.46 | 80.6 | 
CCCCCCCC/C=C\CCCCCCCC(=O)OCCN(CCOC(=O)OC(CCCCCC)CCCCCCCCC(=O)OCC(CCCCCC)CCCCCCCC)CCN(CC)CC (stereo not drawn) [Comparative Example 2, reference compound] | 100 | 0.74 | 88.8 | 
CCCCCC(CCCCC)COC(=O)CCCC(CC)OC(=O)OCCN(CCOC(=O)OC(CC)CCCC(=O)OCC(CCCCC)CCCCC)CCN(CC)CC (stereo not drawn) [Example 20, Bis(2-pentylheptyl) 11-(2-(diethylamino)ethyl)-5,17-dietyl-7,15-dioxo-6,8,14,16-tetraoxa-11-azahenicosanedioate] | 100.0 | 3.22 | 133.4 | 
CCCCCC(CCCCC)COC(=O)CCCC(CCCCC)OC(=O)OCCN(CCOC(=O)OC(CCCCC)CCCC(=O)OCC(CCCCC)CCCCC)CCN(CC)CC (stereo not drawn) [Example 23, Bis(2-pentylheptyl) 11-(2-(diethylamino)ethyl)-7,15-dioxo-5,17-dipentyl-6,8,14,16-tetraoxa-11-azahenicosanedioate] | 97.5 | 3.60 | 76.8 | 
CCCCCCC(CCCC)COC(=O)CCCCCCCCC(CCCCCC)OC(=O)OCCN(CCCN(CC)CC)CCOC(=O)OC(CCCCCC)CCCCCCCCC(=O)OCC(CCCC)CCCCCC (stereo not drawn) [Example 3, Bis(2-butyloctyl) 16-(3-(diethylamino)propyl)-10,22-dihexyl-12,20-dioxo-11,13,19,21-tetraoxa-16-azahentriaco ntanedioate] | 97.8 | 1.92 | 81.2 | 
CCCCCCC(CCCC(=O)OCC(CCCCC)CCCCC)OC(=O)OCCCCN(CCCCOC(=O)OC(CCCCCC)CCCC(=O)OCC(CCCCC)CCCCC)CCN(CC)CC (stereo not drawn) [Example 16, Bis(2-pentylheptyl) 13-(2-(diethylamino)ethyl)-5,21-dihexyl-7,19-dioxo-6,8,18,20-tetraoxa-13-azapentacosanedio ate] | 97.3 | 2.53 | 69.4 | 
CCCCCCCCCOC(=O)CCCC(CCCC(=O)OCCCCCCCCC)OC(=O)OCCN(CCOC(=O)OC(CCCC(=O)OCCCCCCCCC)CCCC(=O)OCCCCCCCCC)CCN(CC)CC [Example 34, Dinonyl 11-(2-(diethylamino)ethyl)-5,17-bis(4-(nonyloxy)-4-oxobutyl)-7,15-dioxo-6,8,14,16-tetraoxa-11-azahenicosanedioate] | 100.0 | 1.20 | 99.2 | 
CCCCCCC(CCCC(=O)OCC(CCCCC)CCCCC)OC(=O)OCCN(CCOC(=O)OC(CCCCCC)CCCC(=O)OCC(CCCCC)CCCCC)CCN(C)C (stereo not drawn) [Example 11, Bis(2-pentylheptyl) 11-(2-(dimethylamino)ethyl)-5,17-dihexyl-7,15-dioxo-6,8,14,16-tetraoxa-11-azahenicosanedio ate] | 98.6 | 2.70 | 73.2 | 
CCCCCCOC(=O)CCCC(CCCC(=O)OCCCCCC)OC(=O)OCCN(CCOC(=O)OC(CCCC(=O)OCCCCCC)CCCC(=O)OCCCCCC)CCN(CC)CC [Example 32, Dihexyl 11-(2-(diethylamino)ethyl)-5,17-bis(4-(hexyloxy)-4-oxobutyl)-7,15-dioxo-6,8,14,16-tetraoxa-11-azahenicosanedioate] | 95.5 | 4.03 | 165.3 | 
CCCCCCCCOC(=O)CCCC(CCCC(=O)OCCCCCCCC)OC(=O)OCCN(CCOC(=O)OC(CCCC(=O)OCCCCCC)CCCC(=O)OCCCCCC)CCN(CC)CC [Example 42] |  |  |  | Nucleic acid encapsulation rate (EPO mRNA; [4]): 98.9%; Relative amount of EPO protein (with respect to Comparative Example 1) (human EPO; [4]): 4.28; Particle size [1, 4]: 128.2 nm
CCCCCCC(CCC(=O)OCC(CCCCC)CCCCC)OC(=O)OCCN(CCOC(=O)OC(CCCCCC)CCC(=O)OCC(CCCCC)CCCCC)CCN(CC)CC (stereo not drawn) [Example 17, Bis(2-pentylheptyl) 10-(2-(diethylamino)ethyl)-4,16-dihexyl-6,14-dioxo-5,7,13,15-tetraoxa-10-azanonadecanedioate] | 96.9 | 2.93 | 81.7 | 
